The conditions of data set [1]: DCM.
A further data set addresses human PCSK9 (Homo sapiens, UniProt Q8NBP7). Briefly: PCSK9 ligand binding assay (TR-FRET): interference with binding of human PCSK9 to human LDLR. The conditions noted are these: for IC50: Human PCSK9 Alexa Fluor 647 / Human LDLR extracellular domain-Europium Kryptate; for Max % inhibition: efficacy (Amax), 100% = 1 uM unlabeled human PCSK9, 0% = DMSO. An outline of the steps: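 Read-out was TR-FRET ratio (665 nm over 615 nm, 330 nm excitation) between Alexa Fluor 647-human PCSK9 (16 nM added) and Europium Kryptate-human LDLR ectodomain (4 nM added). Compound and PCSK9 were mixed 30 min before LDLR, then incubated 2 h. Inhibition was normalised to DMSO and unlabelled-PCSK9 controls, giving IC50 and Amax.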
(Time-resolved FRET reads energy transfer from a long-lived donor to a nearby acceptor.)

In general, IC50 refers to the concentration needed to halve the response being measured.

Read-outs that look alike come from different tables or passages of the source.

human PCSK9, sequence (Q8NBP7 153-692): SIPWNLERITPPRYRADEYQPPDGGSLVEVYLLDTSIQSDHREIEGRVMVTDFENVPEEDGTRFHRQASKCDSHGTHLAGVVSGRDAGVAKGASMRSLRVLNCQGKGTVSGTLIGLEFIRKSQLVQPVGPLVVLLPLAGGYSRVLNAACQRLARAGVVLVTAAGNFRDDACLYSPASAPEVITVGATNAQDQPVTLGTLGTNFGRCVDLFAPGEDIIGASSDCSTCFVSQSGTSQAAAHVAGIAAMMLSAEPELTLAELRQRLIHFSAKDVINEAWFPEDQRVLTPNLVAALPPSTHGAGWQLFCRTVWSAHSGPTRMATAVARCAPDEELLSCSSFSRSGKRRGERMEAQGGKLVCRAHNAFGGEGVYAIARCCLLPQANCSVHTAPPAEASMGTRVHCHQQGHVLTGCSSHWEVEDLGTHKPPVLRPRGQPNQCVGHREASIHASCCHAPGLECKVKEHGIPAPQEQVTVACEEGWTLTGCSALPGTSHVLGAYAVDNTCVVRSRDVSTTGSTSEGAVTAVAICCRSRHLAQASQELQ
human PCSK9, sequence (Q8NBP7 31-152 partner limits assumed): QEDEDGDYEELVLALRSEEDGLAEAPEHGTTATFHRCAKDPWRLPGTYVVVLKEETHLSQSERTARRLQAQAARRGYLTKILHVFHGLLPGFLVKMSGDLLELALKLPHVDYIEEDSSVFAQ

In data set [1] (from C[C@@H](C(=O)N[C@@H](CO)C(=O)N[C@@]1(Cc2ccc(Cl)cc2)CCCNC1)N(Cc1ccc(Cl)cc1Oc1ccc(-c2cnc(CN(C)C)n2C)cc1)C(=O)N[C@@H](Cc1ccccc1)C(=O)O, amide bond, HATU/HOAt/2,6-lutidine, 1.0 mM, 25.0 °C, 2.5 h), `C[C@H]1C(=O)N[C@@H](CO)C(=O)N[C@@]2(Cc3ccc(Cl)cc3)CCCN(C2)C(=O)[C@H](Cc2ccccc2)NC(=O)N1Cc1ccc(Cl)cc1Oc1ccc(-c2cnc(CN(C)C)n2C)cc1.Cl` [Compound 60, (3S,7S,10S,13R)-3-benzyl-6-(4-chloro-2-(4-(2-((dimethylamino)methyl)-1-methyl-1H-imidazol-5-yl)phenoxy)benzyl)-13-(4-chlorobenzyl)-10-(hydroxymethyl)-7-methyl-1,4,6,9,12-pentaaza-bicyclo[11.3.1]-heptadecane-2,5,8,11-tetraone hydrochloride] displayed a ring closure, yield of all isomers of 55%. Further, on human PCSK9, the IC50 came to 0.476 nM and the Max % inhibition stood at 106.6%.
As to `C[C@H]1C(=O)N[C@@H](CO)C(=O)N[C@@]2(Cc3ccc(Cl)cc3)CCCN(C2)C(=O)[C@H](Cc2ccccc2)OC(=O)N1Cc1ccc(Cl)cc1Oc1ccc(-c2cnc(CN(C)C)n2C)cc1.Cl` [Compound 78, (3S,7S,10S,13R)-3-benzyl-6-(4-chloro-2-(4-(2-((dimethylamino)methyl)-1-methyl-1H-imidazol-5-yl)phenoxy)benzyl)-13-(4-chlorobenzyl)-10-(hydroxymethyl)-7-methyl-4-oxa-1,6,9,12-tetraazabicyclo[11.3.1]heptadecane-2,5,8,11-tetraone hydrochloride], in data set [1] (from C[C@@H](C(=O)N[C@@H](CO)C(=O)N[C@@]1(Cc2ccc(Cl)cc2)CCCNC1)N(Cc1ccc(Cl)cc1Oc1ccc(-c2cnc(CN(C)C)n2C)cc1)C(=O)O[C@@H](Cc1ccccc1)C(=O)O, amide bond, HATU/HOAt, 2,6-lutidine, 1.0 mM, 25.0 °C, 2.25 h, 2 steps), the ring closure, yield of all isomers turned out to be 38%. On human PCSK9, the IC50 amounted to 0.859 nM and the Max % inhibition is reported as 99.2%.
In data set [1] (from C[C@H](NCc1ccc(Cl)cc1Oc1ccc(-c2cnc(CN3CCCC3)n2C)cc1)C(=O)N[C@@H](COC(C)(C)C)C(=O)N(C)[C@H](Cc1ccc(Cl)cc1)CN(C)C(=O)[C@@H](CC(=O)O)[C@H]1CCc2ccccc21, amide bond, HATU, 1.0 mM, 40.0 °C, 29.0 h, 2 steps), `C[C@H]1C(=O)N[C@@H](CO)C(=O)N(C)[C@H](Cc2ccc(Cl)cc2)CN(C)C(=O)[C@H]([C@H]2CCc3ccccc32)CC(=O)N1Cc1ccc(Cl)cc1Oc1ccc(-c2cnc(CN3CCCC3)n2C)cc1.Cl` [Compound 86, (2S,5S,8R,12S)-1-(4-chloro-2-(4-(1-methyl-2-(pyrrolidin-1-ylmethyl)-1H-imidazol-5-yl)phenoxy)-benzyl)-8-(4-chlorobenzyl)-12-((R)-2,3-dihydro-1H-inden-1-yl)-5-(hydroxymethyl)-2,7,10-trimethyl-1,4,7,10-tetraazacyclotetradecane-3,6,11,14-tetraone hydrochloride] gave a ring closure, yield of all isomers of 45%. Also, on human PCSK9, the IC50 stood at 0.941 nM and the Max % inhibition came to 99.4%.
Take `COC[C@@H]1NC(=O)[C@H](C)N(Cc2ccc(Cl)cc2Oc2ccc(-c3cnc(CN4CCCC4)n3C)cc2)C(=O)C[C@@H]([C@H]2CCc3ccccc32)C(=O)N2CCC[C@@](Cc3ccc(Cl)cc3)(C2)NC1=O.O=C(O)C(F)(F)F` [Compound 96, (3S,7S,10S,13R)-6-(4-chloro-2-(4-(1-methyl-2-(pyrrolidin-1-ylmethyl)-1H-imidazol-5-yl)phenoxy)benzyl)-13-(4-chlorobenzyl)-3-((R)-2,3-dihydro-1H-inden-1-yl)-10-(methoxymethyl)-7-methyl-1,6,9,12-tetraazabicyclo[11.3.1]heptadecane-2,5,8,11-tetraone trifluoroacetate]: the ring closure, yield of all isomers in data set [1] (from COC[C@H](NC(=O)[C@H](C)NCc1ccc(Cl)cc1Oc1ccc(-c2cnc(CN3CCCC3)n2C)cc1)C(=O)N[C@@]1(Cc2ccc(Cl)cc2)CCCN(C(=O)[C@@H](CC(=O)O)[C@H]2CCc3ccccc32)C1, amide bond, HATU/HOAt/2,6-lutidine, 1.04 mM, 40.0 °C, 17.0 h) was 46%. On human PCSK9, the IC50 worked out at 2.21 nM and the Max % inhibition was 96.3%.
With `COC[C@@H]1NC(=O)[C@H](C)N(Cc2ccc(Cl)cc2Oc2ccc(-c3cnc(CN(C)C)n3C)cc2)CC[C@@H](Cc2ccccc2)C(=O)N2CCC[C@@](Cc3ccc(Cl)cc3)(C2)NC1=O.O=C(O)C(F)(F)F` [Compound 120, (3R,7S,10S,13R)-3-benzyl-6-(4-chloro-2-(4-(2-((dimethylamino)methyl)-1-methyl-1H-imidazol-5-yl)phenoxy)benzyl)-13-(4-chlorobenzyl)-10-(methoxymethyl)-7-methyl-1,6,9,12-tetraazabicyclo[11.3.1]heptadecane-2,8,11-trione trifluoroacetate], the ring closure, yield of all isomers in data set [1] (from COC[C@H](NC(=O)[C@H](C)N)C(=O)N[C@@]1(Cc2ccc(Cl)cc2)CCCN(C(=O)[C@@H](CC=O)Cc2ccccc2)C1, amine bond, NaBH(OAc)3/AcOH, 10.0 mM, 25.0 °C, 2.5 h, 4 steps) turned out to be 0.6%. Besides, on human PCSK9, the IC50 turned out to be 61.2 nM and the Max % inhibition was 102.4%.
For the molecule `CC(C)[C@H]1CC(=O)N(Cc2ccc(Cl)cc2Oc2ccc(-c3cnc(CN(C)C)n3C)cc2)[C@@H](C)C(=O)N[C@@H](CO)C(=O)N[C@@]2(Cc3ccc(Cl)cc3)CCCN(C2)C1=O.Cl` [Compound 133, (3R,7S,10S,13R)-6-(4-chloro-2-(4-(2-((dimethylamino)methyl)-1-methyl-1H-imidazol-5-yl)phenoxy)benzyl)-13-(4-chlorobenzyl)-10-(hydroxymethyl)-3-isopropyl-7-methyl-1,6,9,12-tetraazabicyclo[11.3.1]heptadecane-2,5,8,11-tetraone hydrochloride], in data set [1] (from CC(C)[C@@H](CC(=O)N(Cc1ccc(Cl)cc1Oc1ccc(-c2cnc(CN(C)C)n2C)cc1)[C@@H](C)C(=O)N[C@@H](CO)C(=O)N[C@@]1(Cc2ccc(Cl)cc2)CCCNC1)C(=O)O, amide bond, HATU, 1.0 mM, 25.0 °C, 17.0 h), the ring closure, yield of all isomers is 59%. In addition, on human PCSK9, the half-inhibitory concentration (IC50) is 1490 nM and the Max % inhibition is recorded as 76.9%.
`COC[C@@H]1NC(=O)[C@H](C)N(Cc2ccc(Cl)cc2Oc2ccc(-c3cnc(CN(C)C)n3C)cc2)C(=O)O[C@@H](Cc2ccccc2)C(=O)N2CCC[C@@](Cc3ccc(Cl)cc3)(C2)NC1=O.Cl` [Compound 156, (3S,7S,10S,13R)-3-benzyl-6-(4-chloro-2-(4-(2-((dimethylamino)methyl)-1-methyl-1H-imidazol-5-yl)-phenoxy)benzyl)-13-(4-chlorobenzyl)-10-(methoxymethyl)-7-methyl-4-oxa-1,6,9,12-tetraazabicyclo[11.3.1]heptadecane-2,5,8,11-tetraone hydrochloride] displayed a ring closure, yield of all isomers in data set [1] (from COC[C@H](NC(=O)[C@H](C)N(Cc1ccc(Cl)cc1Oc1ccc(-c2cnc(CN(C)C)n2C)cc1)C(=O)O[C@@H](Cc1ccccc1)C(=O)O)C(=O)N[C@@]1(Cc2ccc(Cl)cc2)CCCNC1, amide bond, HATU/HOAt, 2,6-lutidine, 0.95 mM, 25.0 °C, 1.5 h) of 38%. On human PCSK9, the IC50 stood at 9.21 nM and the Max % inhibition came out at 100.8%.

The record behind these values is US11813306B2, “Cyclic tetramer compounds as proprotein convertase subtilisin/kexin type 9 (PCSK9) inhibitors for the treatment of metabolic disorders” (NOVARTIS AG, priority 2018, dated 2023).
